The record followed here is patent US20230117034A1, “PYRAZOLOTRIAZINES” (Bayer Aktiengesellschaft, priority 2019, published 2023).

Each structure is given as a SMILES string.

For one experiment, the target named is CDK12/CycK (Homo sapiens, UniProt Q9NYV4). Put plainly: CDK12/CycK high ATP kinase assay (TR-FRET, 2 mM ATP). In kind it is biochemical. To be noted: 2 mM ATP (high ATP); median; read-out: CDK12/CyclinK, 2 mM ATP (high ATP), IC50-[mol/l] (median). In a few lines:
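Read-out is TR-FRET (Eu-anti-rabbit IgG, anti-phospho-c-Myc Ser62 antibody, streptavidin-XL665) after EDTA stop. Reaction ran 60 min at 22 °C using 1 µM biotin-peptide and high ATP (2 mM) with roughly 0.75 nM recombinant CDK12/CycK, after 15 min compound pre-binding; normalised emission ratios yield IC50.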
On the technique in general: TR-FRET usually uses a lanthanide donor and a delayed reading to cut background.

The target of experiment [1] is T1, CDK12 (nuclear staining in CAL-120 cells) (Homo sapiens, UniProt Q9NYV4).
T1 construct: endogenous in cells; host or cells: CAL-120 human breast cancer cells (DSMZ ACC 459)
T1 sequence (Q9NYV4 whole entry): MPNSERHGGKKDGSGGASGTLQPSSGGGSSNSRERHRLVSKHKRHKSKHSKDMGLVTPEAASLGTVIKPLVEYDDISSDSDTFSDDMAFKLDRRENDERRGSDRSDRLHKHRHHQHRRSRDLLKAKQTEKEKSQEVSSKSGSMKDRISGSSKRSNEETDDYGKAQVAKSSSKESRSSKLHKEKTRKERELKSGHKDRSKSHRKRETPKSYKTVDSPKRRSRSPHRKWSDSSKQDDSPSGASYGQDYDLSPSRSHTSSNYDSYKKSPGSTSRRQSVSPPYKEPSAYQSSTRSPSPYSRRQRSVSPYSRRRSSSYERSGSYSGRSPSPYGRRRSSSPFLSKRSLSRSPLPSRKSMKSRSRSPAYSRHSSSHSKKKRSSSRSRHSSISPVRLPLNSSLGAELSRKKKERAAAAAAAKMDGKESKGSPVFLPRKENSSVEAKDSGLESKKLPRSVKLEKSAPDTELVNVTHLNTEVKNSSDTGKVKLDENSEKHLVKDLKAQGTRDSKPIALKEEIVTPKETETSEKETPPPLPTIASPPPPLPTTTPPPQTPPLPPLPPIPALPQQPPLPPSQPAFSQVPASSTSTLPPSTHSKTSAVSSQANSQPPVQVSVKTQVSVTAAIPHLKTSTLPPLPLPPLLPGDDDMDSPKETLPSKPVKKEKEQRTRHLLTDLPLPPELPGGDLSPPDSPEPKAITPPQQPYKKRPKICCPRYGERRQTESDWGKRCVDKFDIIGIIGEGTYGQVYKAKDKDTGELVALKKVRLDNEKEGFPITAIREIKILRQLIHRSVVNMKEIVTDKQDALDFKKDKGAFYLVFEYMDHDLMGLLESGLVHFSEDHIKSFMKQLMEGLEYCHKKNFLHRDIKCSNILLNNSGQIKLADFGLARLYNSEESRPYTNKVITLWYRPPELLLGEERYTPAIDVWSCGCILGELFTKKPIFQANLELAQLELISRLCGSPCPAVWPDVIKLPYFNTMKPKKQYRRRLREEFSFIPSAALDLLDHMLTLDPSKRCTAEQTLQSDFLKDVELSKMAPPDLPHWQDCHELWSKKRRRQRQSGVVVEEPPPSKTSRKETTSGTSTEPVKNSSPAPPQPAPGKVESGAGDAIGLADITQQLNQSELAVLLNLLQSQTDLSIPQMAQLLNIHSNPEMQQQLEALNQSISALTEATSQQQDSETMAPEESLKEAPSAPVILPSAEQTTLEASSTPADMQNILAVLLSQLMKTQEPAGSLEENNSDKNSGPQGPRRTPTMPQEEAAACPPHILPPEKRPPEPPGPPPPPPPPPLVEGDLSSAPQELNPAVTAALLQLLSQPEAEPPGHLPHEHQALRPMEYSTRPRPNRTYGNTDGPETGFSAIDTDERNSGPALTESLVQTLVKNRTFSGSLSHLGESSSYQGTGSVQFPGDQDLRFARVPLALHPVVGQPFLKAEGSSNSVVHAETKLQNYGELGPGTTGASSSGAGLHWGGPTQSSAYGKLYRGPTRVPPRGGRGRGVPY
T1 sequence (O75909 whole entry partner): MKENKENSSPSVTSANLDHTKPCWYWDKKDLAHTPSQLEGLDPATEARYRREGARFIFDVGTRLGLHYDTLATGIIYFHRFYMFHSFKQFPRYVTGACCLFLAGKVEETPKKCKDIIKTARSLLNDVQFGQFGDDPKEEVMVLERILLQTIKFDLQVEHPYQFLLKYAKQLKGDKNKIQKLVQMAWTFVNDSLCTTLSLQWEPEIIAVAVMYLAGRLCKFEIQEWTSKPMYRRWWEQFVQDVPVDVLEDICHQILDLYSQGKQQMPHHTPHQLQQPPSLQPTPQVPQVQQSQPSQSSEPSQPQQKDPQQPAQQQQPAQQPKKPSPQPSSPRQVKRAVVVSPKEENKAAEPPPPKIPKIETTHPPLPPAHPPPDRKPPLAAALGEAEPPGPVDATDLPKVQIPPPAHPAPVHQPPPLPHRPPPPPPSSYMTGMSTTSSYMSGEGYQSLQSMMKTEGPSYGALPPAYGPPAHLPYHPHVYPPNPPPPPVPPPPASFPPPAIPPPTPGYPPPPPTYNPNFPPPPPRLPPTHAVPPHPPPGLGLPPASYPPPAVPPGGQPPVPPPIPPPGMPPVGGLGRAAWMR
Put plainly: CDK12 nuclear protein level: immunofluorescence/high content analysis (CAL-120). In kind it is cell-based. To be noted: for DC50: CAL-120 cells, 24 h, immunofluorescence, 50% reduction of nuclear CDK12 staining intensity, median, read-out: CDK12 degradation IF, DC50- [mol/l] (median); for (IC50 CDK12 high ATP) to (Degradation DC50 CDK12) ratio: ratio of IC50 CDK12 high ATP kinase assay to DC50 CDK12 degradation (IF, CAL-120). In a few lines: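 DC50 is the degrader concentration that halves nuclear CDK12 immunofluorescence relative to controls, measured by high-content imaging. CAL-120 cells were exposed to compound for 24 h at 37 °C before PFA fixation, and signal was normalized to DMSO and control wells.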

Sequence of CDK12/CycK (Q9NYV4 with tags, fused parts or gaps): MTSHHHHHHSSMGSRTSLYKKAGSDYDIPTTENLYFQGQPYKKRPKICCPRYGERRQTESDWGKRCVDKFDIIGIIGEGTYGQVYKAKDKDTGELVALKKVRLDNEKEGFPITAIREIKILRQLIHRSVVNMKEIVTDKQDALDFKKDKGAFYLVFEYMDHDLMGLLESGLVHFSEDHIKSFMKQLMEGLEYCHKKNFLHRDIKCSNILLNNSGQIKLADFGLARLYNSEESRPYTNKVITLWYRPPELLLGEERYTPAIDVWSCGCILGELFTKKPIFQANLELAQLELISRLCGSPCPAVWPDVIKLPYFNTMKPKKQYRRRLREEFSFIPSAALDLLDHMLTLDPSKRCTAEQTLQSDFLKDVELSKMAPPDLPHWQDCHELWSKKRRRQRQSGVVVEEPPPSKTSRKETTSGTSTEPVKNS
Sequence of CDK12/CycK (O75909 1-300 partner limits assumed): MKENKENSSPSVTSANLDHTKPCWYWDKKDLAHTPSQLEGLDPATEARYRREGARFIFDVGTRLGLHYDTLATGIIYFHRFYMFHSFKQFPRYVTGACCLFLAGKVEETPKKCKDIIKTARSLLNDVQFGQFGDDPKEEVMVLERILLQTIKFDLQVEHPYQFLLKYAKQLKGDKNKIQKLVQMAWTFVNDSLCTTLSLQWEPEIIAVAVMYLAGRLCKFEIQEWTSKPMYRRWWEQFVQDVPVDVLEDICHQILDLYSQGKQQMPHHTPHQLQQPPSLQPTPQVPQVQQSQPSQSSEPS

As for `Clc1cnn2c(NCc3nc4ccccc4[nH]3)nc(N3CCOCC3)nc12` [Example 15, N-[(1H-benzimidazol-2-yl)methyl]-8-chloro-2-(morpholin-4-yl)pyrazolo[1,5-a][1,3,5]triazin-4-amine], on CDK12/CycK, the IC50 worked out at 6020 nM. In experiment [1], the DC50 came to 5.05 nM and the “(IC50 CDK12 high ATP) to (Degradation DC50 CDK12) ratio” value is 1191.

Regarding `Fc1ccc2[nH]c(CNc3nc(N4CCOCC4)nc4c(C5CC5)cnn34)nc2c1` [Example 181, 8-cyclopropyl-N-[(5-fluoro-1H-benzimidazol-2-yl)methyl]-2-(morpholin-4-yl)pyrazolo[1,5-a][1,3,5]triazin-4-amine], the IC50 at CDK12/CycK amounted to 1910 nM. Further, in experiment [1], the DC50 is 0.878 nM and the “(IC50 CDK12 high ATP) to (Degradation DC50 CDK12) ratio” value was determined as 2179.

With `C[C@@H]1CN(c2nc(NCc3nc4c(F)cccc4[nH]3)n3ncc(C4CC4)c3n2)C[C@H](C)N1` [Example 186, 8-cyclopropyl-2-[(3R,5S)-3,5-dimethylpiperazin-1-yl]-N-[(4-fluoro-1H-benzimidazol-2-yl)methyl]pyrazolo[1,5-a][1,3,5]triazin-4-amine], on CDK12/CycK, the IC50 is 2720 nM. In addition, in experiment [1], the DC50 is 0.226 nM and the “(IC50 CDK12 high ATP) to (Degradation DC50 CDK12) ratio” value is given as 12018.

As to `Cc1ccc2[nH]c(CNc3nc(N4CCN(C)CC4)nc4c(C5CC5)cnn34)nc2c1` [Example 210, 8-cyclopropyl-N-[(5-methyl-1H-benzimidazol-2-yl)methyl]-2-(4-methylpiperazin-1-yl)pyrazolo[1,5-a][1,3,5]triazin-4-amine], the IC50 at CDK12/CycK is over 20000 nM. Also, in experiment [1], the DC50 amounted to 1.41 nM and the “(IC50 CDK12 high ATP) to (Degradation DC50 CDK12) ratio” value is recorded as over 14143.

`Fc1ccc2[nH]c(CNc3nc(N4C[C@@H]5CCCN[C@@H]5C4)nc4c(C5CC5)cnn34)nc2c1` [Example 180, 8-cyclopropyl-N-[(5-fluoro-1H-benzimidazol-2-yl)methyl]-2-[(4aS, 7aS)-octahydro-6H-pyrrolo[3,4-b]pyridin-6-yl]pyrazolo[1,5-a][1,3,5]triazin-4-amine]: the IC50 on CDK12/CycK was found to be 17300 nM. Besides, in experiment [1], the DC50 was 1.59 nM and the “(IC50 CDK12 high ATP) to (Degradation DC50 CDK12) ratio” value was 10852.

With `Fc1ccc2[nH]c(CNc3nc(N4C[C@@H]5C[C@H]4CO5)nc4c(C5CC5)cnn34)nc2c1F` [Example 173, 8-cyclopropyl-N-[(4,5-difluoro-1H-benzimidazol-2-yl)methyl]-2-[(1S,4S)-2-oxa-5-azabicyclo[2.2.1]heptan-5-yl]pyrazolo[1,5-a][1,3,5]triazin-4-amine], on CDK12/CycK, the IC50 is over 20000 nM. Moreover, in experiment [1], the DC50 stood at 1.74 nM and the “(IC50 CDK12 high ATP) to (Degradation DC50 CDK12) ratio” value is recorded as over 11498.

On to `CO[C@@H]1CCN(c2nc(NCc3nc4ccccc4[nH]3)n3ncc(Br)c3n2)C1` [Example 223, N-[(1H-benzimidazol-2-yl)methyl]-8-bromo-2-[(3R)-3-methoxypyrrolidin-1-yl]pyrazolo[1,5-a][1,3,5]triazin-4-amine], for which the IC50 on CDK12/CycK is over 16500 nM. In experiment [1], the DC50 was 57.6 nM and the “(IC50 CDK12 high ATP) to (Degradation DC50 CDK12) ratio” value is recorded as over 287.

Take `Fc1ccc2[nH]c(CNc3nc(N4C[C@@H]5C[C@H]4CO5)nc4c(C5CC5)cnn34)nc2c1` [Example 185, 8-cyclopropyl-N-[(5-fluoro-1H-benzimidazol-2-yl)methyl]-2-[(1S,4S)-2-oxa-5-azabicyclo[2.2.1]heptan-5-yl]pyrazolo[1,5-a][1,3,5]triazin-4-amine]: the IC50 at CDK12/CycK is over 19600 nM. In experiment [1], the DC50 worked out at 2.49 nM and the “(IC50 CDK12 high ATP) to (Degradation DC50 CDK12) ratio” value is recorded as over 7872.

As for `Cc1ccc2[nH]c(CNc3nc(N4CCOCC4)nc4c(C5CC5)cnn34)nc2c1` [Example 193, 8-cyclopropyl-N-[(5-methyl-1H-benzimidazol-2-yl)methyl]-2-(morpholin-4-yl)pyrazolo[1,5-a][1,3,5]triazin-4-amine], on CDK12/CycK, the IC50 stood at 1750 nM. In experiment [1], the DC50 turned out to be 2.68 nM and the “(IC50 CDK12 high ATP) to (Degradation DC50 CDK12) ratio” value came to 653.

For the molecule `CN1CC[C@H]2CN(c3nc(NCc4nc5ccccc5[nH]4)n4ncc(Br)c4n3)C[C@H]21` [Example 179, N-[(1H-benzimidazol-2-yl)methyl]-8-bromo-2-[(3aS,6aS)-1-methylhexahydropyrrolo[3,4-b]pyrrol-5 (1H)-yl]pyrazolo[1,5-a][1,3,5]triazin-4-amine], at CDK12/CycK, the IC50 is over 20000 nM. Besides, in experiment [1], the DC50 was found to be 4.59 nM and the “(IC50 CDK12 high ATP) to (Degradation DC50 CDK12) ratio” value is recorded as over 4361.

With `Brc1cnn2c(NCc3nc4ccccc4[nH]3)nc(N3C[C@H]4CCCN[C@H]4C3)nc12` [Example 199, N-[(1H-benzimidazol-2-yl)methyl]-8-bromo-2-[(4aR, 7aR)-octahydro-6H-pyrrolo[3,4-b]pyridin-6-yl]pyrazolo[1,5-a][1,3,5]triazin-4-amine], the IC50 on CDK12/CycK was found to be 14800 nM. Moreover, in experiment [1], the DC50 came out at 5.55 nM and the “(IC50 CDK12 high ATP) to (Degradation DC50 CDK12) ratio” value is 2661.

Take `Brc1cnn2c(NCc3nc4ccccc4[nH]3)nc(N3CC4CCC3CN4)nc12` (stereo not drawn) [Example 220, N-(1H-benzimidazol-2-ylmethyl)-8-bromo-2-(2,5-diazabicyclo[2.2.2]octan-2-yl)pyrazolo[1,5-a][1,3,5]triazin-4-amine]: the IC50 at CDK12/CycK stood at 5550 nM. In experiment [1], the DC50 is 4.21 nM and the “(IC50 CDK12 high ATP) to (Degradation DC50 CDK12) ratio” value is listed as 1318.

For `Fc1cccc2[nH]c(CNc3nc(N4CCNCC4)nc4c(C5CC5)cnn34)nc12` [Example 182, 8-cyclopropyl-N-[(4-fluoro-1H-benzimidazol-2-yl)methyl]-2-(piperazin-1-yl)pyrazolo[1,5-a][1,3,5]triazin-4-amine], at CDK12/CycK, the IC50 worked out at 2040 nM. In experiment [1], the DC50 is 0.727 nM and the “(IC50 CDK12 high ATP) to (Degradation DC50 CDK12) ratio” value came to 2813.

Turning to `Fc1cccc2[nH]c(CNc3nc(N4CCOCC4)nc4c(C5CC5)cnn34)nc12` [Example 188, 8-cyclopropyl-N-[(4-fluoro-1H-benzimidazol-2-yl)methyl]-2-(morpholin-4-yl)pyrazolo[1,5-a][1,3,5]triazin-4-amine], the IC50 on CDK12/CycK is 581 nM. Moreover, in experiment [1], the DC50 worked out at 1.26 nM and the “(IC50 CDK12 high ATP) to (Degradation DC50 CDK12) ratio” value is reported as 460.

For the molecule `CC(C)c1cnn2c(NCc3nc4ccccc4[nH]3)nc(Nc3ccncc3)nc12` [Example 14, N^4-[(1H-benzimidazol-2-yl)methyl]-8-(propan-2-yl)-N^2-(pyridin-4-yl)pyrazolo[1,5-a][1,3,5]triazine-2,4-diamine], the IC50 on CDK12/CycK is over 16400 nM. For the same molecule, in experiment [1], the DC50 amounted to 14.6 nM and the “(IC50 CDK12 high ATP) to (Degradation DC50 CDK12) ratio” value was over 1123.
